Holding throughout (assay type): in vivo, mouse
The test system of assay [1] is BDF1 mice preimmunized with TRFP. Briefly: Peptide Y tolerization of mice preimmunized with TRFP, IL-2 (CTLL-2) and IL-4 (CT4S) production. As for the experimental part: BDF1 mice were each immunized with 100 μg TRFP in 200 μl IFA (Incomplete Freund's Adjuvant) in a single site intraperitoneally. After four months, the mice were bled and grouped according to their anti-TRFP IgG antibody levels as follows. The mice were warmed with an infra-red lamp and bled through one of the tail veins by nicking the vein with a razor blade (Gilette Platinum Plus). The blood was allowed to drip into a serum separating tube (Microtainer, Becton-Dickenson) and allowed to clot. The sera was then separated from the clot by centrifugation at 13,000 rpm. The sera was stored at −20° C. until use. The sera was assayed for TRFP-specific IgG by ELISA. […] After rinsing, the bound mouse antibody was detected by incubation with biotinylated goat anti-mouse IgG (Southern Biotechnology Associates) diluted 1/10000 in PBS. […] The resulting O.D. values were read by an ELISA reader (Bio-Tek modal #310) at 450 nm to quantitate the complexes bound to TRFP protein on the plates. […]
There are several phenotypic classes of T helper cells which can be differentiated by their production of lymphokines. […] IL-2 production is easily measured from primary in vitro lymph node cultures through the IL-2 dependent CTLL-2 cell line. Similarly, IL-4 can be measured with cultures of the IL-4 dependent CT4S cells (provided by W. Paul). […] The plates were harvested and counted identically to the IL-2 assays detailed above. […]

A further assay concerns BDF1 mice. Description: Tolerization of mice with peptide s.c. or i.v., peptide-specific IL-2 production of lymph node cells (CTLL-2). The conditions noted are these: 300 μg in PBS day 0 and 5, intravenously and subcutaneously; challenge 100 μg in CFA. The method, then: Four groups of five BDF1 (C57BL/6J×DBA/2J) mice (females, 6-8 weeks of age), were injected either subcutaneously in a single dorsal site between the forelimbs or intravenously through one of the tail veins. […] The animals were sacrificed by cervical dislocation on day 20 and inguinal and popliteal nodes were removed and placed in rinsing buffer, cold RPMI 1640 containing 1% Fetal Bovine Serum (FBS). The nodes were rinsed with rinsing buffer and forced through a fine stainless steel mesh, using a glass pestal to suspend them in rinsing buffer. The suspended cells were rinsed two times by centrifugation at 1500 rpm for 10 minutes and resuspended with rinsing buffer. An aliquot of suspended cells from each animal was counted on a Coulter Counter Model ZB.
The 0.2 ml cultures were done in triplicate in flat bottom 96 well plates (Costar) at 37° C. and 5% CO2. After 24 hours, […] of the media from each well was placed in separate round bottom 96 well plates (Costar) and was frozen overnight at −20° C. to eliminate carryover of live cells. The supernatants were tested after thawing for their ability to support the growth of CTLL-2, an IL-2 dependent T cell clone (ATCC TIB#214). […] The ^3H-incorporation in each well was counted by a Betaplate Model 1205 scintillation counter. […]

The test system of the next assay is CD4+ T cells. Description: Cytokine production of purified CD4+ T cells from peptide Y pre-injected mice. The conditions noted are these: CD4+ T cells from pre-injected mice compared to control CD4+ cells.

On to “peptide Y: amino acid residues 29-55 from chain 1 of TRFP (SEQ. ID. NO: 18) (KALPVVLENARILKNCVDAKMTEEDKE)”, for which the “tolerization of peptide Y specific T cells (IL-2)” value in assay [1] (300 μg s.c. days 0 and 5, animals preimmunized with TRFP) was “can be tolerized”. Besides, the “peptide specific production of both IL-2 and IL-4 in secondary in vitro cultures” value in assay [1] (pooled lymph node cells, stimulation index) is “decreased”. Besides, in the assay with BDF1 mice, the “specific IL-2 secretion of draining lymph node cells” value is “decreased specific IL-2 secretion”. In the assay with CD4+ T cells, the “reduction in the production of the cytokines (IL-2, IL-3 and IL-4)” value was “greater than 75%”.
